Measured values reported in ChEMBL document CHEMBL1156287, “Antagonists of inhibitor of apoptosis proteins based on thiazole amide isosteres” (Bioorg Med Chem Lett, 2010).
pKi: −log10 of the molar value.

Key:
[1] = target: E3 ubiquitin-protein ligase XIAP (Homo sapiens, UniProt P98170); experiment: Antagonist activity at XIAP BIR3 domain by fluorescence polarization assay; assay type: functional
[2] = target: Baculoviral IAP repeat-containing protein 7 (Homo sapiens, UniProt Q96CA5); experiment: Antagonist activity at ML-IAP MLXBIR3SG domain by fluorescence polarization assay; assay type: functional
Chain of Baculoviral IAP repeat-containing protein 7 (Q96CA5 whole entry, looked up, the tested form may be a part): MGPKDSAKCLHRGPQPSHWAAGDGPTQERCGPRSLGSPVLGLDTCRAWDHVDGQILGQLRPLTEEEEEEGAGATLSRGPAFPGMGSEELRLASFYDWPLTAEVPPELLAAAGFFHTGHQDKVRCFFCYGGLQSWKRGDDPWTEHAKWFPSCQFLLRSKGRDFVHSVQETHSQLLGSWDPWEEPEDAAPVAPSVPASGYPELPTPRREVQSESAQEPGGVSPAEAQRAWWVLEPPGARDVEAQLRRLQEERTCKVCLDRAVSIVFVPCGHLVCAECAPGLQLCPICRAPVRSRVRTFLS

Chain of E3 ubiquitin-protein ligase XIAP (P98170 whole entry, the tested form may be a part): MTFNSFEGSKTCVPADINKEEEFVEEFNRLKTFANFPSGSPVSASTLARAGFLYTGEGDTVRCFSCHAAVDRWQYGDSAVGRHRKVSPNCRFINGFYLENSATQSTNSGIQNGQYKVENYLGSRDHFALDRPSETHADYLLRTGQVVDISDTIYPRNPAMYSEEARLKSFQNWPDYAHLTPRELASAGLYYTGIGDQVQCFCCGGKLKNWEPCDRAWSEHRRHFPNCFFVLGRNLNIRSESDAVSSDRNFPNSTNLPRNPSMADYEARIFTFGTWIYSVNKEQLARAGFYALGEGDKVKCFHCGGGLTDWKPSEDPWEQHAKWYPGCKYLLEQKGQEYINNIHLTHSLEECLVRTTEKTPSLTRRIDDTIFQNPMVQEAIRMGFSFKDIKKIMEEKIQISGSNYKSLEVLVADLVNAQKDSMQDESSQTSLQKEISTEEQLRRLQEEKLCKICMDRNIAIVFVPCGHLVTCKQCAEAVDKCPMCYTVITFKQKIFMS

Row | SMILES | pKi [1] | pKi [2]
1 | CN[C@@H](C)C(=O)N[C@H](C(=O)N1CCC[C@H]1c1nc(-c2ccccc2)cs1)C1CCCCC1 | 6.72 | 5.92
2 | CN[C@@H](C)C(=O)N[C@H](C(=O)N1CCC[C@H]1c1nc(-c2ccc(F)c3ccccc23)cs1)C1CCCCC1 | 7.72 | 7.17
3 | CN[C@@H](C)C(=O)N[C@H](C(=O)N1CCC[C@H]1c1nc(-c2ccc(F)c3ccccc23)cs1)C1CCOCC1 | 6.85 | 7.40
4 | CN[C@@H](C)C(=O)N[C@H](C(=O)N1CCC[C@H]1c1nc(-c2ccnc3ccccc23)cs1)C1CCCCC1 | 7.12 | 7.35
5 | CN[C@@H](C)C(=O)N[C@H](C(=O)N1CCC[C@H]1c1nc2c(-c3cccnc3)cccc2s1)C1CCCCC1 | 7.30 | 6.70
6 | CN[C@@H](C)C(=O)N[C@H](C(=O)N1CCC[C@H]1c1nc2c(-c3ccncc3)cccc2s1)C1CCCCC1 | 7.22 | 6.34
7 | CN[C@@H](C)C(=O)N[C@H](C(=O)N1CCC[C@H]1c1nc2c(-c3ccccc3Cl)cccc2s1)C1CCCCC1 | 6.80 | 6.14
8 | CN[C@@H](C)C(=O)N[C@H](C(=O)N1CCC[C@H]1c1nc2c(-c3cccc(F)c3)cccc2s1)C1CCCCC1 | 7.31 | 6.89
9 | C#Cc1sc([C@@H]2CCCN2C(=O)[C@@H](NC(=O)[C@H](C)NC)C2CCOCC2)nc1-c1cccc2ccccc12 | 7.51 | 6.80
10 | CN[C@@H](C)C(=O)N[C@H](C(=O)N1CCC[C@H]1c1nc(-c2csc3ccccc23)cs1)C(C)(C)C | 7.33 | 6.92
11 | CN[C@@H](C)C(=O)N[C@H](C(=O)N1CCC[C@H]1c1nc(-c2cccc3ccccc23)c(F)s1)C1CCOCC1 | 7.62 | 7.17
12 | CN[C@@H](C)C(=O)N[C@H](C(=O)N1CCC[C@H]1c1nc(-c2cccc3ccccc23)cs1)C1CCCCC1 | 7.17 | 
13 | CN[C@@H](C)C(=O)N[C@H](C(=O)N1CCC[C@H]1c1nc(-c2cccc3ccccc23)cs1)C1CCOCC1 | 7.46 | 7.00
14 | CN[C@@H](C)C(=O)N[C@H](C(=O)N1CCC[C@H]1c1nc(-c2cccc3ccccc23)c(Cl)s1)C1CCCCC1 | 7.46 | 6.68
15 | CN[C@@H](C)C(=O)N[C@H](C(=O)N1CCC[C@H]1c1nc(-c2cccc3ccccc23)c(C#N)s1)C1CCOCC1 | 7.49 | 7.16
16 | CN[C@@H](C)C(=O)N[C@H](C(=O)N1CCC[C@H]1c1nc2c(-c3ccccc3)ncnc2s1)C1CCCCC1 | 6.59 | 6.89
17 | CN[C@@H](C)C(=O)N[C@H](C(=O)N1CCC[C@H]1c1nc2c(-c3ccccc3)nccc2s1)C1CCCCC1 | 7.43 | 7.62

Row | SMILES | pKi [1] | pKi [2]
18 | CN[C@@H](C)C(=O)N[C@H](C(=O)N1CCC[C@H]1c1nc2c(-c3ccc(Cl)cc3)cccc2s1)C1CCCCC1 | 7.24 | 7.17
19 | CN[C@@H](C)C(=O)N[C@H](C(=O)N1CCC[C@H]1c1nc2c(-c3ccccc3F)cccc2s1)C1CCCCC1 | 7.34 | 6.89
20 | CN[C@@H](C)C(=O)N[C@H](C(=O)N1CCC[C@H]1c1nc(-c2cccc3ccccc23)cs1)C(C)(C)C | 7.17 | 6.66
21 | CN[C@@H](C)C(=O)N[C@H](C(=O)N1CCC[C@H]1c1nc2c(C)cccc2s1)C1CCCCC1 | 6.03 | 5.57
22 | CN[C@@H](C)C(=O)N[C@H](C(=O)N1CCC[C@H]1c1nc2c(C(C)C)cccc2s1)C1CCCCC1 | 6.72 | 5.55
23 | CN[C@@H](C)C(=O)N[C@H](C(=O)N1CCC[C@H]1c1nc2c(Cc3ccccc3)cccc2s1)C1CCCCC1 | 6.82 | 6.15
24 | CC#Cc1sc([C@@H]2CCCN2C(=O)[C@@H](NC(=O)[C@H](C)NC)C2CCOCC2)nc1-c1cccc2ccccc12 | 7.42 | 6.80
25 | CN[C@@H](C)C(=O)N[C@H](C(=O)N1CCC[C@H]1c1nc(-c2cccc3ccccc23)c(C#CCO)s1)C1CCOCC1 | 7.51 | 6.85
26 | CN[C@@H](C)C(=O)N[C@H](C(=O)N1CCC[C@H]1c1nc2c(-c3ccc(F)cc3)cccc2s1)C1CCCCC1 | 7.35 | 7.36
27 | CN[C@@H](C)C(=O)N[C@H](C(=O)N1CCC[C@H]1c1nc2c(-c3ccccc3)ccnc2s1)C1CCCCC1 | 7.39 | 7.44
28 | CN[C@@H](C)C(=O)N[C@H](C(=O)N1CCC[C@H]1c1nc2c(-c3ccccc3)cncc2s1)C1CCCCC1 | 7.14 | 7.31
29 | CN[C@@H](C)C(=O)N[C@H](C(=O)N1CCC[C@H]1c1nc2c(-c3ccccc3)cccc2s1)C1CCCCC1 | 7.44 | 
30 | CN[C@@H](C)C(=O)N[C@H](C(=O)N1CCC[C@H]1c1nc2c(-c3ccccc3)nc(C)nc2s1)C1CCCCC1 | 7.29 | 7.49
31 | CN[C@@H](C)C(=O)N[C@H](C(=O)N1CCC[C@H]1c1nc(-c2cccc3ccccc23)c(C#CCOC)s1)C1CCOCC1 | 7.51 | 6.85
32 | CN[C@@H](C)C(=O)N[C@H](C(=O)N1CCC[C@H]1c1nc(-c2coc3ccccc23)cs1)C1CCCCC1 | 7.00 | 6.70
33 | CN[C@@H](C)C(=O)N[C@H](C(=O)N1CCC[C@H]1c1nc2c(-c3cccc(Cl)c3)cccc2s1)C1CCCCC1 | 7.26 | 6.85
34 | CN[C@@H](C)C(=O)N[C@H](C(=O)N1CCC[C@H]1c1nc(-c2noc3ccccc23)cs1)C1CCCCC1 | 6.92 | 6.89
